We go through two compounds from US6489157B1, “Medium for cultivating microorganisms” (priority 1999, dated 2002).

The test system of one data set is isolate of CHL004. In words: Use as phosphate source for growth. The format is cell-based, Pseudomonas aeruginosa. From the text:
In Wanner (16), it is noted that organophosphates can be directly transported to the cytoplasm of E. coli and S. typhimurium, or they can be hydrolyzed in the periplasm by phosphatases, after which the phosphate is transported to the cytoplasm.

The nature of data set [1]: Solubility of Pb(NO3)2 in BPTN, ICAP trace metal analysis before and after 0.2 micrometer filtering. Type of data set: physicochemical. The following applies: n=4.
A further data set relates to P. aeruginosa CHL004. Briefly: Growth in medium with Pb(NO3)2. The format is cell-based, Pseudomonas aeruginosa. As to conditions: Pb(NO3)2 increased from zero to 1 mM in BPTN. The protocol:
All cultures were grown at 29° C. in a water bath incubator with shaking at a speed of 200 rpm. The cultures were inoculated with a saturated overnight culture in BPTN. Overnight cultures (˜18 hours) were prepared from −80° C. freezer stocks. Data were typically obtained after approximately three or more doublings, and only data between an optical density at 650 nm (OD650) of 0.1 and half the saturation cell density were used for analysis.
Growth rate and saturation cell density studies. The OD650 was measured using a Perkin Elmer Lambda 2 UV/VIS spectrometer. The cell path length was 10 mm. Duplicate 100 μL aliquots were taken from growing cultures and diluted with 900 microliters of a solution having a minimum concentration of 62 mM NaNO3. The same diluent was used within a given growth rate curve. Sixty two mM NaNO3 was determined to be isosmotic with BPTN. Osmolalities were determined using a Precision Instruments microOsmette freezing point depression osmometer calibrated at 0, 100, and 500 mOsm.
Growth in medium with Pb(NO3)2. […] The variances from the growth rate curve fittings for BPTN+1 mM Pb(NO3) 2 are typically equal to or smaller than those for BPTN. […] A linear relationship between CFU/mL and OD650 is expected if the extent of scattering is proportional to the cell density in the cell slurry. […]

Each structure is given as a SMILES string.

On to `N[C@@H](COP(=O)(O)O)C(=O)O` [O-Phospho-L-serine], for which the “use as a phosphate source” value in the data set with isolate of CHL004 was “can be used as a phosphate source”.
Take `O=[N+]([O-])[O-].O=[N+]([O-])[O-].[Pb+2]` [Pb(NO3)2]: in data set [1] (0.2 micrometer PES syringe filter), the “Pb^2+ concentration after filtering” value came out at 25.1 ± 1.3 mM. Moreover, the “Pb^2+ concentration before filtering” value in data set [1] is 24.0 ± 0.6 mM. The “change of growth rate constant of CHL004 with Pb(NO3)2 concentration” value in the data set with P. aeruginosa CHL004 is reported as “decreases”.
